{"source": "patent US20070042062A1", "about": "“Novel anti-diabetic herbal formulation” (COUNCIL OF SCIENTIFIC AND INDUSTRIAL RESEARCH., priority 2004, published 2007)", "origin": "cited, not measured here", "key": {"[1]": {"test_system": "carrageenin-induced acute oedema", "details": "mice"}, "monkey": {"test_system": "monkey", "details": "in vivo"}, "[2]": {"test_system": "patients suffering from chronic antieri or ureitis (CAU)", "details": "375 mg three times a day for 12 weeks, oral; curcumin alone"}, "male volunteers": {"test_system": "male volunteers", "design": "dose or concentration left out as unconfirmed", "details": "for 4 weeks"}}, "data": [{"smiles": "COc1cc(/C=C/C(=O)CC(=O)/C=C/c2ccc(O)c(OC)c2)ccc1O", "note": "[Curcumin, curcumin]", "values": [{"measurement": "oral ED50 against carrageenin-induced acute oedema", "setting": "[1]", "value": 100.2, "unit": "mg/kg"}, {"measurement": "toxicity on single or repeated oral administration", "setting": "monkey", "value": "did not produce any toxicity"}, {"measurement": "clinical outcome in CAU patients", "setting": "[2]", "value": "all the patients who received curcumin alone improved"}, {"measurement": "side effect in phase-I trials", "setting": "male volunteers", "value": "did not produce any side effect"}]}]}
